The results in this text go back to patent US20240239790A1, “7-Morpholino-1,6-Naphthyridin-5-yl Derivatives and Pharmaceutical Compositions Thereof Useful as DNA-PK Inhibitor” (adMare Therapeutics Society, priority 2021, published 2024).

Molecules are shown by their SMILES. Read-outs that look alike come from different tables or passages of the source. Bounds are passed on as bounds.

A word on the microsomal CLint: it is the rate of metabolic loss divided by the concentration. As a reminder, the IC50 is the midpoint of a concentration-inhibition curve. Read a low IC50 as higher potency. One may read the AUC(0-t) as exposure summed from dosing to a finite time, without extrapolation to infinity. High values mean more exposure, low ones less exposure. As usually defined, the half-life is the time in which the quantity being followed falls by half. The low end stands for rapid decline, the high end for slow decline. As a reminder, the Cmax is the peak of the concentration-time curve.

The nature of data set [1]: Microsomal Stability Assay, human liver microsomes. The format is in vitro ADME. To be noted: for microsomal CLint at 0.1 uM: both sexes, pH 7.4, human liver microsomes 0.1 mg/mL, 0.1 uM compound; for Microsomal Stability Human % rem. 60 min: human liver microsomes. The protocol:
(§1) Samples were then mixed and centrifuged. Supernatants were used for HPLC-MS/MS analysis. […] Peak areas corresponding to the test compound were recorded.
(In general: Liver microsomes are a subcellular fraction often used to study metabolism.)

The target of data set [2] is T1, DNA-PK phosphorylation at Serine 2056 (Homo sapiens, UniProt P78527).
T1 construct: FaDu cells were purchased from ATCC; host or cells: FaDu
Briefly: Cellular Assay for Inhibition of DNA-PK Phosphorylation at Serine 2056 in FaDu cells (sandwich ELISA, neocarzinostatin). To be noted: pSer2056 DNA-PK, neocarzinostatin 1 μg/mL, Table 1. The format is cell-based. A digest of the protocol: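 FaDu cells pre-treated with compound (0.3% DMSO) for 1 h, then neocarzinostatin 1 μg/mL final added for 2 h to induce DSBs. Protein-normalised lysates read by sandwich ELISA for total and pSer2056 DNA-PK; % inhibition normalised between DMSO and NCS controls, IC50 from variable-slope log(inhibitor) fit.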
Background: An ELISA detects its analyte on a solid surface through an enzyme-linked reagent.

The nature of data set [3]: Pharmacokinetic study in mice (IV and PO), plasma. The conditions noted are these: for AUC(0-t) / half-life / AUC(0-inf) / Cmax / Cmax at 5 min: female, C57BL/6; for AUC(0-t) / half-life / AUC(0-inf) / Cmax / AUC—% Extrap—obs / Cl_obs / Vz_obs / Cmax at 5 min / AUC_% Extrap_obs: mouse plasma; for Cmax: read-out: Cmax (5 min); for Rsq: Mouse Plasma, fit of NCA. The format is in vivo, mouse. The protocol: Pharmacokinetic analysis of compounds was conducted following bolus intravenous (IV) or bolus oral (PO) gavage in mice. Female mice (C57BL/6) in the 17-26 g range were weighed, and then administered an individually prescribed dose volume based on body weight of formulated compound via the intravenous (IV; tail vein) or oral gavage (PO) route (IV 5 mL/kg; PO 10 mL/kg). At selected timepoints post administration, blood was collected into vials with anticoagulant, processed for plasma by centrifugation, and then kept frozen ([…]) until analysis.
The in-vivo study plasma samples were analyzed using Ultra Performance Liquid Chromatography (UPLC) with tandem mass spectrometry (MS/MS) detection in multiple reaction monitoring (MRM) mode. A generic bioanalytical method involving plasma sample extraction and cleanup by protein precipitation with acetonitrile was used followed by UPLC-MS/MS analysis.
A brief example of a generic bioanalytical UPLC-MS/MS method used for analysis of compounds in the in-vivo study plasma samples is as follows. Plasma samples were spiked with internal standard prior to extraction and cleanup by protein precipitation with ice cold acetonitrile containing 0.1% (v/v) ammonium hydroxide at a ratio of 3:1 (solvent:plasma) and centrifuged at 18213 rcf for 15 minutes at 4° C. to pellet precipitates. Aliquots of supernatants were transferred to a 96-well plate and evaporated to dryness at 40° C. under a stream of nitrogen gas. Samples were reconstituted in 50:50 acetonitrile/10 mM ammonium acetate buffer pH 8, mixed thoroughly and analyzed using Ultra Performance Liquid Chromatography (UPLC) with tandem mass spectrometry (MS/MS) detection in multiple reaction monitoring (MRM) mode. Matrix-matched calibration standards and quality control (QC) samples were prepared in naïve C57Bl/6 mouse plasma. The UPLC column used was Waters Acquity UPLC BEH C18 1.7 um, 2.1 mm×50 mm (with guard column). The UPLC mobile phase consisted of: Mobile phase A: 10 mM ammonium acetate in Water pH 8, and Mobile phase B: Acetonitrile. Separation was accomplished with a linear gradient of 5% mobile phase B to 95% mobile phase B in 2 min, and a flow rate of 0.35 mL/min. The MS/MS data acquisition was accomplished using 3 MRM Transitions in ESI+ mode. Parent ion mass 508.37 m/z-to-Daughter ions (m/z) 117.05, 232.13 and 270.22. The quantitation of concentrations in test samples was achieved by matrix-matched calibration with normalization using an internal standard. Data acquisition and analysis were performed using Waters MassLynx software with TargetLynx application manager.
Estimation of PK parameters was performed using independent noncompartmental model method by PHOENIX WinNonlin software.

Data set [4] is described as follows: Microsomal Stability Assay, mouse liver microsomes. The format is in vitro ADME. To be noted: for microsomal CLint at 0.1 uM: male, CD-1, pH 7.4, mouse liver microsomes 0.1 mg/mL, 0.1 uM compound; for Microsomal Stability Mouse % rem. 60 min: mouse liver microsomes. How it is done: as §1
[5] abbreviates: IV, 3 mg/kg, read-out: AUCINF—obs.
The mark [6] stands for this setting: PO, 10 mg/kg, read-out: AUCINF—obs.

`O=C(COc1cnc(N[C@H]2CC[C@@H](Oc3nc(N4CCOCC4)cc4ncccc34)CC2)nc1)N1CCC1` [Compound 75, 1-(Azetidin-1-yl)-2-((2-(((1s,4s)-4-((7-morpholino-1,6-naphthyridin-5-yl)oxy)cyclohexyl)amino)pyrimidin-5-yl)oxy)ethan-1-one]: in data set [1], the microsomal CLint at 0.1 uM was over 116 µL/min/mg and the “Microsomal Stability Human % rem. 60 min” value was “F (% remaining = 25-50%)”. The same compound showed an IC50 in data set [2] of under 100 nM. Also, in data set [3] (IV, 3 mg/kg), the exposure AUC(0-t) worked out at 7960 ng·h/mL, the half-life was 1.67 h, the Cmax came to 6020 ng/mL and the “AUC—% Extrap—obs” value amounted to 2.63%. In data set [3] (IV, 3 mg/kg), this compound gave a Cl_obs of 6.1168 mL/min/kg and a Vz_obs of 0.88515 L/kg. In addition, the AUC(0-inf) in data set [3] (setting [5]) amounted to 8170 ng·h/mL. For the same compound, in data set [3] (PO, 10 mg/kg), the AUC(0-t) came out at 18200 ng·h/mL, the half-life is 2.17 h, the highest concentration (Cmax) came out at 5590 ng/mL and the “AUC—% Extrap—obs” value is given as 0.07%. In data set [3] (PO, 10 mg/kg), the Cl_obs is 9.1343 mL/min/kg and the Vz_obs is 1.71597 L/kg. Also, the AUC(0-inf) in data set [3] (setting [6]) was 18200 ng·h/mL. In data set [3] (mouse, PO, 10 mg/kg), the F came out at 69%. Further, in data set [4], the microsomal CLint at 0.1 uM is under 116 µL/min/mg and the “Microsomal Stability Mouse % rem. 60 min” value is reported as “G (% remaining = 50-75%)”.
As for `CN(C)C(=O)Cn1ccc2nc(N[C@H]3CC[C@@H](Oc4nc(N5CCOCC5)cc5ncccc45)CC3)ncc21` [Compound 86, N,N-Dimethyl-2-(2-(((1s,4s)-4-((7-morpholino-1,6-naphthyridin-5-yl)oxy)cyclohexyl)amino)-5H-pyrrolo[3,2-d]pyrimidin-5-yl)acetamide], in data set [1], the microsomal CLint at 0.1 uM was under 116 µL/min/mg and the “Microsomal Stability Human % rem. 60 min” value is listed as “G (% remaining = 50-75%)”. This compound also had an IC50 in data set [2] of under 100 nM. Further, in data set [3] (IV, 3 mg/kg), the AUC(0-t) amounted to 4100 ng·h/mL, the half-life is 1.77 h, the Cmax is 6450 ng/mL and the “AUC—% Extrap—obs” value stood at 1.44%. In data set [3] (IV, 3 mg/kg), this compound registered a Cl_obs of 12.022 mL/min/kg and a Vz_obs of 1.8426 L/kg. Besides, the AUC(0-inf) in data set [3] (setting [5]) turned out to be 4160 ng·h/mL. In data set [3] (PO, 10 mg/kg), the AUC(0-t) was 2620 ng·h/mL, the half-life is 2.92 h, the Cmax came out at 589 ng/mL and the “AUC—% Extrap—obs” value was 0.47%. Also, in data set [3] (PO, 10 mg/kg), the Cl_obs was determined as 63.328 mL/min/kg and the Vz_obs came to 16.019 L/kg. Moreover, in data set [3] (setting [6]), the AUC(0-inf) is 2630 ng·h/mL. The compound further gave a F in data set [3] (mouse, PO, 10 mg/kg) of 19%. Also, in data set [4], the intrinsic metabolic clearance (microsomal CLint) at 0.1 uM was under 116 µL/min/mg and the “Microsomal Stability Mouse % rem. 60 min” value is given as “G (% remaining = 50-75%)”.
On to `CN(C)C(=O)Cn1c(=O)n(C2CCOCC2)c2nc(N[C@H]3CC[C@@H](Oc4nc(N5CCOCC5)cc5ncccc45)CC3)ncc21` [Compound 97, N,N-Dimethyl-2-(2-(((1s,4s)-4-((7-morpholino-1,6-naphthyridin-5-yl)oxy)cyclohexyl)amino)-8-oxo-9-(tetrahydro-2H-pyran-4-yl)-8,9-dihydro-7H-purin-7-yl)acetamide], for which, in data set [1], the intrinsic clearance (microsomal CLint) at 0.1 uM was over 116 µL/min/mg and the “Microsomal Stability Human % rem. 60 min” value was “E (% remaining = 0-25%)”. Also, the IC50 in data set [2] was under 100 nM. In data set [3] (IV, 3 mg/kg), this compound showed a Rsq of 0.98, an AUC(0-t) of 4340 ng·h/mL, a peak concentration (Cmax) at 5 min of 4860 ng/mL and a half-life of 2.21 h. Also, in data set [3] (IV, 3 mg/kg), the “AUC_% Extrap_obs” value is 0.77%, the Cl_obs came out at 11.43 mL/min/kg and the Vz_obs is 2.18741 L/kg. In addition, in data set [3] (PO, 10 mg/kg), the Rsq is reported as 0.98, the area under the curve AUC(0-t) came to 6770 ng·h/mL, the Cmax at 5 min was 2520 ng/mL and the half-life is 2.07 h. Also, in data set [3] (PO, 10 mg/kg), the “AUC_% Extrap_obs” value turned out to be 0.03%, the Cl_obs came out at 24.6043 mL/min/kg and the Vz_obs was determined as 4.41523 L/kg. In data set [3] (Mouse, PO 10 mg/kg vs IV 3 mg/kg), the F was 47%. Further, the AUC(0-inf) in data set [3] (IV, 3 mg/kg, read-out: AUCINF_obs) was 4380 ng·h/mL. The AUC(0-inf) in data set [3] (PO, 10 mg/kg, read-out: AUCINF_obs) was 6770 ng·h/mL. Besides, in data set [4], the microsomal CLint at 0.1 uM is under 116 µL/min/mg and the “Microsomal Stability Mouse % rem. 60 min” value was “F (% remaining = 25-50%)”.
